pIC50: −log10 of the molar value.

The subject of the first assay is Leishmania donovani. The experiment in a line: Antileishmanial activity against promastigote forms of Leishmania donovani by alamar blue assay. In kind it is functional, organism-based.
As for `Cc1cccc(O)c1` [METACRESOL], the pIC50 was 5.04 and the concentration for an effect of 90% (IC90) came to 12.4 µM. `CC1=C[C@H](O)[C@H]2O[C@H]2C1=O` had a negative logarithm of the IC50 (pIC50) of 5.16 and an IC90 of 10.8 µM. `C[C@@H]1[C@H](O)[C@@H](C)/C=C/C=C/C=C/C=C/C=C/C=C/C=C/[C@H](O[C@@H]2O[C@H](C)[C@@H](O)[C@H](N)[C@@H]2O)C[C@@H]2O[C@](O)(C[C@@H](O)C[C@@H](O)[C@H](O)CC[C@@H](O)C[C@@H](O)CC(=O)O[C@H]1C)C[C@H](O)[C@H]2C(=O)O` [AMPHOTERICIN B] displayed an IC90 of 0.4 µM. In turn, `N=C(N)c1ccc(OCCCCCOc2ccc(C(=N)N)cc2)cc1` [PENTAMIDINE] gave a pIC50 of 5.49 and an IC90 of 5.9 µM. The corresponding values for `OCc1cc(O)cc(O)c1Cc1ccc(O)c(O)c1` are 4.89 and 22 µM.

For the molecule `CC1=C[C@@H](O)[C@H](O)CC1=O` (single isomer, unassigned), the pIC50 is 4.33 and the IC90 came to 61 µM. On the same counts, the results for `OCc1cccc(O)c1` are 4.47 and 52.3 µM. The corresponding values for `OCc1cc(O)ccc1O` [GENTISYL ALCOHOL] are 5.07 and 10.4 µM. On the same counts, the results for `O=Cc1cc(O)ccc1O` are 5.48 and 6.1 µM.

The test system of the next assay is Staphylococcus aureus. The experiment in a line: Antimicrobial activity against methicillin-resistant Staphylococcus aureus ATCC 33591. The class given is functional, organism-based.
As to `Cc1ccc(O)c(O)c1`, the pIC50 was 4.14.

Another assay has as its system Staphylococcus aureus. The experiment in a line: Antimicrobial activity against Staphylococcus aureus ATCC 29213. In kind it is functional, organism-based.
On to `Cc1ccc(O)c(O)c1`, for which the pIC50 was 3.83.

The term pIC50 denotes the negative decadic logarithm of the IC50, by convention in mol/L. Broadly, the IC90 is the concentration needed for an effect of 90%. A lower IC90 goes with greater potency.

The values above are taken from ChEMBL document CHEMBL3351471, “Antileishmanial metabolites from Geosmithia langdonii” (J Nat Prod, 2014).
